Data: PMC4226669, “Anti-cancer potency of tasquinimod is enhanced via albumin-binding facilitating increased uptake in the tumor microenvironment” (Oncotarget, 2014)

Key:
[1] = test system: human umbilical vein endothelial cells (HUVECs); experiment: 3D in vitro endothelial sprouting and tube formation assay; assay type: cell-based
From the text: A three-dimensional (3D) in vitro endothelial sprouting and tube formation assay was utilized to define the anti-angiogenic potency of tasquinimod vs. these metabolites. In this 3D assay, human umbilical endothelial cells (i.e., HUVECs) are initially grown on microcarrier beads and the cell coated beads embedded in fibrin gels with media conditioned by normal human lung fibroblasts. Under these 3D-conditions, endothelial cells “sprout” producing 3D neovessel tubes with patent lumen within one week, Figure 4A - left panel. When tasquinimod is added at the initiation to these 3D-cultures, sprouting of the endothelial cells is inhibited, Figure 4B-right panel, with the potency for such inhibition, expressed as an IC50 value (i.e., the concentration of drug which inhibits by 50% the endothelial sprouting) of 0.5 μM, Figure 4C. […] Using this 3D-HUVEC assay, the potency (i.e., expressed as IC50) of tasquinimod metabolites to inhibit endothelial sprouting was compared to tasquinimod. […] To further confirm that tasquinimod itself and not the carboxamide-N-demethylated metabolite is the active drug, the response to ketoconazole alone and in combination with tasquinimod was tested in the 3D-endothelial sprouting assay.
The 3-dimensional (3D) in vitro angiogenic sprouting and tube formation assay was used as described previously. This 3D-endothelial sprouting assay was conducted using a minimum of 5 replicate wells per drug dose per experiment, repeated 3 independent times using human umbilical vein endothelial cells (HUVECs; Lonza Walkersville, Inc.) with modification that 20 μL of 10X concentrated Dulbecco's Modified Eagle's Media/10%FCS media conditioned by confluent human primary lung fibroblasts (Lonza) diluted to 200 μL of growth factor supplemented EGM-2 media (Lonza) was used instead of fibroblast co-culture.

[2] = Protein binding fraction (PBF) in nude mouse plasma; assay type: in vitro ADME
Method: (§1) Mice were orally gavaged with ^14C-labeled tasquinimod at a dose of 5mg/kg and 1 hour later blood collected and plasma isolated and the PBF determined as described previously using Centrifree® YM-30 centrifuge filter unit with a molecular weight cutoff of 30K (i.e., Millipore, Billerica,MO).

[3] = Protein binding fraction (PBF) in bovine fetal serum; assay type: in vitro ADME; conditions: bovine fetal serum (FBS), 1-50 μM radiolabeled tasquinimod
Method: An explanation for this highly restricted cellular uptake in the blood is provided by the fact that protein binding fraction (PBF) for tasquinimod in nude mouse plasma is 98 ± 1%. This is not a nude mouse specific effect since incubation of 1-50 μM radiolabeled tasquinimod with human plasma or bovine fetal serum (FBS) results in a PBF of ~ 98%.
as §1

[4] = test system: CWR-22Rv1 prostate cancers; experiment: Vascular volume, albumin-Evans Blue accumulation (EPR effect) and growth in CWR-22Rv1 bearing mice treated with tasquinimod; assay type: in vivo, mouse
Method: To evaluate the potential importance of an EPR effect for enhancing tumor specific tasquinimod uptake and thus anti-cancer potency, albumin retention in plasma and normal tissue vs. prostate cancer was determined. To do this, nude mice bearing CWR-22Rv1 prostate cancers were injected intravenously (IV) with Evans Blue (EB) at a dose (10mg/kg) so that all of the dye is initially bound to albumin within the blood. Twenty-four hours later, the amount of albumin-EB complex retained in plasma vs. accumulated in liver, kidney, or CWR-22Rv1 prostate cancers determined. The results are expressed as concentration of extractable albumin-EB in plasma vs. the specified tissue. These studies document that prostate cancers accumulate a concentration of albumin-EB that is equal to that in the plasma by 24 hours, Figure 3C. When normalized to vascular volume, the albumin-EB accumulation by prostate cancers is more than two fold greater (p<0.05) compared to liver and more than 8 fold greater (p<0.05) compared to kidney, Figure 3C. […] Such continuous treatment with tasquinimod decreased the vascular volume within the cancers by nearly half (p<0.05), Figure 3C. […]
Tissue vascular volumes for liver, kidney, and CWR-22Rv1 cancers were determined previously via intravenous infusion of^51 Chromium (Perkin Elmer, Shelton, CT) labeled red blood cells and the result expressed as percent vascular volume as described previously.
EPR effect was determined using Evans Blue as described previously with the modification that 24 hours after the albumin in the blood of tumor bearing nude mice was labeled via IV injection of Evans Blue (EB) at a dose of 10mg/kg, the animals were anesthetized, blood collected, and then animals were perfused with saline to remove blood from the host tissues before harvesting liver, kidney, and prostate cancer xenograft tissue. The results are expressed as the concentration of EB-labeled albumin retained in the blood or specified tissue.

HUVEC cells = experiment: In vitro cell metabolism in HUVEC; assay type: in vitro ADME, human; conditions: HUVEC, 1 μM, 48 hours
Method: The nuclear uptake results are consistent with tasquinimod being the active drug for both direct therapeutic effects on cancer cells and indirect effects via suppression of the angiogenic response of host endothelial cells. To confirm these conclusions, the concentration of tasquinimod metabolites produced by endothelial cells was compared to the potency of these metabolites for inhibiting angiogenesis. When HUVEC cells are exposed to 1 μM of ^14C-labeled tasquinimod for 48 hours, < 15% of the drug is metabolized with 10% (i.e., 100 nM) being converted to the quinoline-O-demethylated compound and < 2% (i.e., < 20 nM) being converted to the quinoline-N-demethylated or carboxamide-N-demethylated compounds.
For in vitro studies, cells were incubated with 1μM ^14C-labeled tasquinimod for indicated time period and then the media and cells or cell nuclei separately harvested, deproteinated with acetonitrile, and metabolites separated by HPLC and quantitated as described above.

[5] = design: method as in PMID 16955399; conditions: adult male mice, 0.1-30 mg/kg via gavage or drinking water; cited from earlier work

plasma tasquinimod that is albumin bound [2]: 98%
total plasma tasquinimod that is non-protein bound ([2]; following oral dosing): ~ 2%
fraction unbound at 1 h ([2]; oral, 5 mg/kg, nude mouse plasma): 0.02
fraction unbound [3]: ~0.02
drug metabolized (HUVEC cells): < 15%
Structure (SMILES): COc1cccc2c1c(O)c(C(=O)N(C)c1ccc(C(F)(F)F)cc1)c(=O)n2C [Tasquinimod]
sprouting of HUVEC cells in 3-D culture ([1]; 1μM, 5 days co-treatment with conditioned media from fibroblasts): Lack of sprouting
IC50 ([1]; Homo sapiens, HUVEC, 3D-HUVEC sprouting assay, read-out: IC50 (concentration of drug which inhibits by 50% the endothelial sprouting)): ~0.5 µM
Percent Vascular Volume (Prostate Cancer) ([4]; 10mg/kg/day for 30 days): 1.4±0.4
decrease of vascular volume within the cancers ([4]; 10 mg/kg/day for a month): nearly half
inhibition in cancer growth ([4]; CWR-22Rv1, 10 mg/kg/day for a month): greater than 80%
bioavailability and oral absorption [5]: excellent
